Source: patent US5905068A, “Retroviral protease inhibiting compounds” (Abbott Laboratories, priority 1996, dated 1999)

What was measured:
HIVIIIB = assay: Antiviral Activity: anti-HIV activity in MT4 cells infected with HIVIIIB (MTT); assay type: cell-based; settings: Human immunodeficiency virus 1, 120 h, MOI 0.003, 5 days, n=four duplicate determinations
Procedure: (§1) The anti-HIV activity of the compound of the invention was determined in MF4 cells according to the following procedure: MT4 cells were infected with cell-free supernatant of HIVIIIB (previously frozen with known 50% tissue culture infectious dose (TCID50) at 0.003 multiplicity of infection (MOI)) for one hour. After one hour infection, cells were washed twice to remove residual viruses, resuspended in culture media and seeded into 96-well tissue culture plates at 1×10^4 cells per well with various half-log dilutions of compounds. Uninfected cells were included a toxicity and cell controls. RPMI 1640 media (GIBCO) with 10% fetal bovine serum was used as culture media. Various concentrations (50%, 25% and 12.5%) of human serum (SIGMA) were added to culture media resulting in final concentrations of 60%, 35% and 22.5% total serum. All assay plates were incubated in a 37° C. incubator for 5 days. The compound 3-[4,5-dimethylthiozol-2-yl]-2,5-diphenyltetrazolium bromide (MTT, SIGMA, 5 mg .mL stock in PBS) was then added to all wells at 25 μL per well and incubated for 4 hours. SDS (20%) with 0.02N HCl in water was added at 50 μL per well to lyse cells. Plates were incubated overnight for complete cell lysis and then read on a microtiter plate reader at 570/650 nm wavelengths to determine cell optical density (O.D.). Raw data was analysed for percent inhibition by the following formula: [formula]
The 50% effective concentration (EC50) was calculated by the median effect equation (Chou, 1975, Proc. Int. Cong. Pharmacol. 6th p. 619) to determine the efficacy of compound. The 50% cytotoxicity concentration (CTC50) was calculated using uninfected MT4 cells
Under these conditions, the data of Table 2 was obtained (n=four duplicate determinations).

[1] = Cytotoxicity in uninfected MT4 cells (MTT); assay type: cell-based; settings: human, 5 days, n=four duplicate determinations, read-out: CTC50 (50% cytotoxicity concentration)
Procedure: as §1, with “RPMI 1640 media (GIBCO) with 10% fetal bovine serum was used as culture media. Various concentrations (50%, 25% and 12.5%) of human serum (SIGMA) were added to culture media resulting in final concentrations of 60%, 35% and 22.5% total serum.” left out, “The compound 3-[4,5-dimethylthiozol-2-yl]-2,5-diphenyltetrazolium bromide (MTT, SIGMA, 5 mg .mL stock in PBS) was then added to all wells at 25 μL per well and incubated for 4 hours.” left out
The 50% cytotoxicity concentration (CTC50) was calculated using uninfected MT4 cells

HIV-1 protease = HIV-1 protease (Human immunodeficiency virus type 1 group M subtype B, UniProt P04585); assay: Fluorogenic Assay for Screening Inhibitors of HIV Protease; settings: pH 4.5
Procedure: The inhibitory potency of the compounds of the invention were determined by the following method: The compound of the invention was dissolved in DMSO and a small aliquot further diluted with DMSO to 100 times the final concentration desired for testing. The reaction was carried out in a 6×50 mm tube in a total volume of 300 microliters. […] After addition of inhibitor, the reaction mixture was placed in the fluorometer cell holder and incubated at 30° C. for several minutes. The reaction was initiated by the addition of a small aliquot of cold HIV protease. The fluorescence intensity (excitation 340 nm, emission 490 nm) was recorded as a function of time. The reaction rate was determined for the first six to eight minutes. The observed rate was directly proportional to the moles of substrate cleaved per unit time. The percent inhibition was calculated according to the equation: 100×(1-(rate of inhibitor)/(rate in absence of inhibitor)). As a control, duplicate reactions were performed identically as above but without the addition of an inhibitor compound.

Structure (SMILES)	EC50 (HIVIIIB)	CC50 at 120 h [1]	inhibition at 0.0005 µM (HIV-1 protease)	inhibition at 0.0024 µM (HIV-1 protease)	inhibition at 0.0013 µM (HIV-1 protease)
Cc1cccc(C)c1OCC(=O)N[C@@H](Cc1ccccc1)[C@@H](O)C[C@H](Cc1ccccc1)NC(=O)OC1CCSC1 (mixture of isomers) [Example 30, (2S,3S,5S)-2-(2,6-Dimethylphenoxyacetyl)amino-5-(3(R,S)-tetrahydrothienyloxycarbonyl)amino-1,6-diphenyl-3-hydroxyhexane]	1000 nM	13500 nM	52%		
Cc1cccc(C)c1OCC(=O)N[C@@H](Cc1ccccc1)[C@@H](O)C[C@H](Cc1ccccc1)NC(=O)OC1CCCSC1 (mixture of isomers) [Example 31, (2S,3S,5S)-2-(2,6-Dimethylphenoxyacetyl)amino-5-(3(R,S)-tetrahydrothiopyranyloxycarbonyl)amino-1,6-diphenyl-3-hydroxyhexane]	1100 nM	53300 nM	52%		
Cc1cc(N)cc(C)c1OCC(=O)N[C@@H](Cc1ccccc1)C[C@H](O)[C@H](Cc1ccccc1)NC(=O)O[C@H]1CO[C@H]2OCC[C@H]21 [Example 1, (2S,3S,5S)-5-(2,6-Dimethyl-4-amino-phenoxyacetyl)amino-2-((3R,3aS,6aR)-bis-tetrahydrofuran-3-yl-oxycarbonyl)amino-1,6-diphenyl-3-hydroxyhexane]	9 nM	95000 nM	78%		
Cc1cc(N)cc(C)c1OCC(=O)N[C@@H](Cc1ccccc1)C[C@H](O)[C@H](Cc1ccccc1)NC(=O)O[C@@H]1CO[C@@H]2OCC[C@@H]21 [Example 2, (2S,3S,5S)-5-(2,6-Dimethyl-4-amino-phenoxyacetyl)amino-2-((3S,3aR,6aS)-bis-tetrahydrofuran-3-yl-oxycarbonyl)amino-1,6-diphenyl-3-hydroxyhexane]	170 nM	90000 nM	60%		
Cc1cc(N)cc(C)c1OCC(=O)N[C@@H](Cc1ccccc1)[C@@H](O)C[C@H](Cc1ccccc1)NC(=O)O[C@H]1CO[C@H]2OCC[C@H]21 [Example 3, (2S,3S,5S)-2-(2,6-Dimethyl-4-amino-phenoxyacetyl)amino-5-((3R,3aS,6aR)-bis-tetrahydrofuran-3-yl-oxycarbonyl)amino-1,6-diphenyl-3-hydroxyhexane]	8 nM	61000 nM	91%		
Cc1cc(C)c(OCC(=O)N[C@@H](Cc2ccccc2)C[C@H](O)[C@H](Cc2ccccc2)NC(=O)O[C@H]2CO[C@H]3OCC[C@H]32)c(C)c1N [Example 4, (2S,3S,5S)-5-(2,4,6-Trimethyl-3-amino-phenoxyacetyl)amino-2-((3R,3aS,6aR)-bis-tetrahydrofuran-3-yl-oxycarbonyl)amino-1,6-diphenyl-3-hydroxyhexane]	32 nM	41000 nM	74%		
Cc1cccc(C)c1OCC(=O)N[C@@H](Cc1ccccc1)C[C@H](O)[C@H](Cc1ccccc1)NC(=O)O[C@H]1CO[C@H]2OCC[C@H]21 [Example 5, (2S,3S,5S)-5-(2,6-Dimethyl-phenoxyacetyl)amino-2-((3R,3aS,6aR)-bis-tetrahydrofuran-3-yl-oxycarbonyl)amino-1,6-diphenyl-3-hydroxyhexane]	41 nM	> 100000 nM	87%		
Cc1cccc(C)c1OCC(=O)N[C@@H](Cc1ccccc1)[C@@H](O)C[C@H](Cc1ccccc1)NC(=O)O[C@H]1CO[C@H]2OCC[C@H]21 [Example 6, (2S,3S,5S)-2-(2,6-Dimethyl-phenoxyacetyl)amino-5-((3R,3aS,6aR)-bis-tetrahydrofuran-3-yl-oxycarbonyl)amino-1,6-diphenyl-3-hydroxyhexane]	61 nM	> 100000 nM	91%		
Cc1cccc(CO)c1OCC(=O)N[C@@H](Cc1ccccc1)C[C@H](O)[C@H](Cc1ccccc1)NC(=O)O[C@H]1CO[C@H]2OCC[C@H]21 [Example 7, (2S,3S,5S)-5-(2-Hydroxymethyl-6-methyl-phenoxyacetyl)amino-2-((3R,3aS,6aR)-bis-tetrahydrofuran-3-yl-oxycarbonyl)amino-1,6-diphenyl-3-hydroxyhexane]	37 nM	82000 nM	88%		
Cc1ncnc(C)c1OCC(=O)N[C@@H](Cc1ccccc1)C[C@H](O)[C@H](Cc1ccccc1)NC(=O)O[C@H]1CO[C@H]2OCC[C@H]21 [Example 8, (2S,3S,5S)-5-(4,6-Dimethyl-pyrimidinyl-5-oxyacetyl)amino-2-((3R,3aS,6aR)-bis-tetrahydrofuran-3-yl-oxycarbonyl)amino-1,6-diphenyl-3-hydroxyhexane]	815 nM	> 100000 nM	56%		
Cc1cccc(C)c1NCC(=O)N[C@@H](Cc1ccccc1)[C@@H](O)C[C@H](Cc1ccccc1)NC(=O)O[C@H]1CO[C@H]2OCC[C@H]21 [Example 9, (2S,3S,5S)-5-(N-(2,6-Dimethyl-phenyl)aminoacetyl)amino-2-((3R,3aS,6aR)-bis-tetrahydrofuran-3-yl-oxycarbonyl)amino-1,6-diphenyl-3-hydroxyhexane]	253 nM	56000 nM	69%		
Cc1cc(C)c(OCC(=O)N[C@@H](Cc2ccccc2)C[C@H](O)[C@H](Cc2ccccc2)NC(=O)O[C@H]2CO[C@H]3OCC[C@H]32)c(C)c1 [Example 11, (2S,3S,5S)-5-(2,4,6-Trimethyl-phenoxyacetyl)amino-2-((3R,3aS,6aR)-bis-tetrahydrofuran-3-yl-oxycarbonyl)amino-1,6-diphenyl-3-hydroxyhexane]	205 nM	48000 nM	82%		
COc1cccc(C)c1OCC(=O)N[C@@H](Cc1ccccc1)C[C@H](O)[C@H](Cc1ccccc1)NC(=O)O[C@H]1CO[C@H]2OCC[C@H]21 [Example 12, (2S,3S,5S)-5-(2-Methoxy-6-methylphenoxyacetyl)amino-2-((3R,3aS,6aR)-bis-tetrahydrofuran-3-yl-oxycarbonyl)amino-1,6-diphenyl-3-hydroxyhexane]	353 nM	> 32000 nM	74%		
Cc1cccc(C)c1N(C)CC(=O)N[C@@H](Cc1ccccc1)C[C@H](O)[C@H](Cc1ccccc1)NC(=O)O[C@H]1CO[C@H]2OCC[C@H]21 [Example 13, (2S,3S,5S)-5-(N-(2,6-Dimethyl-phenyl)-N-methyl-aminoacetyl)amino-2-((3R,3aS,6aR)-bis-tetrahydrofuran-3-yl-oxycarbonyl)amino-1,6-diphenyl-3-hydroxyhexane]	2910 nM	18000 nM		50%	
Cc1cc(F)cc(C)c1OCC(=O)N[C@@H](Cc1ccccc1)C[C@H](O)[C@H](Cc1ccccc1)NC(=O)O[C@H]1CO[C@H]2OCC[C@H]21 [Example 14, (2S,3S,5S)-5-(2,6-Dimethyl-4-fluoro-phenoxyacetyl)amino-2-((3R,3aS,6aR)-bis-tetrahydrofuran-3-yl-oxycarbonyl)amino-1,6-diphenyl-3-hydroxyhexane]	268 nM	64000 nM	69%		
Cc1cc(N(C)C)cc(C)c1OCC(=O)N[C@@H](Cc1ccccc1)C[C@H](O)[C@H](Cc1ccccc1)NC(=O)O[C@H]1CO[C@H]2OCC[C@H]21 [Example 15, 5-(2,6-Dimethyl-4-N, N-dimethylamino-phenoxyacetyl)amino-2-((3R,3aS,6aR)-bis-tetrahydrofuran-3-yl-oxycarbonyl)amino-1,6-diphenyl-3-hydroxyhexane]	160 nM	46000 nM	43%		
Cc1cccc(C)c1OCC(=O)N[C@@H](Cc1ccccc1)[C@@H](O)C[C@H](Cc1ccccc1)NC(=O)OC1CCSC1C(C)C (stereo partly drawn) [Example 27, (2S,3S,5S)-2-(2,6-Dimethylphenoxyacetyl)amino-5-(3(R,S)-2(R,S)-isopropyl-tetrahydrothienyloxycarbonyl)amino-1,6-diphenyl-3-hydroxyhexane]					50%
O=C(N[C@@H](Cc1ccccc1)C[C@H](O)[C@H](Cc1ccccc1)NC(=O)c1cccc(O)c1)O[C@H]1CO[C@H]2OCC[C@H]21 [Example 66, (2S,3S,5S)-2-(3-Hydroxy-benzoyl)amino-5-((3R,3aS,6aR)-bis-tetrahydrofuran-3-yl-oxycarbonyl)amino-1,6-diphenyl-3-hydroxyhexane]	644 nM		68%		
